Measurements reported in US20240270762A1, “PENICILLIN-BINDING PROTEIN INHIBITORS” (priority 2021, published 2024).
≈ marks a conversion by molar mass, not a printed value.

Columns and labels:
[1] = test system: P. aeruginosa CDC-0054; assay: microbe, parasite or virus in culture; format: cell-based; conditions: Pseudomonas aeruginosa, CDC0054, read-out: Minimum inhibitory concentration, P. aeruginosa CDC-0054
[2] = test system: A. baumannii ATCC 17978; assay: microbe, parasite or virus in culture; format: cell-based; conditions: Acinetobacter baumannii, ATCC17978, read-out: MIC, A. baumannii ATCC 17978
[3] = test system: B. thailandensis ATCC 700388; assay: microbe, parasite or virus in culture; format: cell-based; conditions: Burkholderia thailandensis, ATCC700388, read-out: Minimum inhibitory concentration (MIC), B. thailandensis ATCC 700388
[4] = target: T1, A. baumannii PBP1a (Acinetobacter baumannii, UniProt A0ABX6CK30); assay: Bocillin-FL competition binding via gel filtration, A. baumannii PBP1a; conditions: competition binding assay using Bocillin-FL via gel filtration; read-out: A. baumannii PBP1a Potency
T1 sequence (A0ABX6CK30 1-851): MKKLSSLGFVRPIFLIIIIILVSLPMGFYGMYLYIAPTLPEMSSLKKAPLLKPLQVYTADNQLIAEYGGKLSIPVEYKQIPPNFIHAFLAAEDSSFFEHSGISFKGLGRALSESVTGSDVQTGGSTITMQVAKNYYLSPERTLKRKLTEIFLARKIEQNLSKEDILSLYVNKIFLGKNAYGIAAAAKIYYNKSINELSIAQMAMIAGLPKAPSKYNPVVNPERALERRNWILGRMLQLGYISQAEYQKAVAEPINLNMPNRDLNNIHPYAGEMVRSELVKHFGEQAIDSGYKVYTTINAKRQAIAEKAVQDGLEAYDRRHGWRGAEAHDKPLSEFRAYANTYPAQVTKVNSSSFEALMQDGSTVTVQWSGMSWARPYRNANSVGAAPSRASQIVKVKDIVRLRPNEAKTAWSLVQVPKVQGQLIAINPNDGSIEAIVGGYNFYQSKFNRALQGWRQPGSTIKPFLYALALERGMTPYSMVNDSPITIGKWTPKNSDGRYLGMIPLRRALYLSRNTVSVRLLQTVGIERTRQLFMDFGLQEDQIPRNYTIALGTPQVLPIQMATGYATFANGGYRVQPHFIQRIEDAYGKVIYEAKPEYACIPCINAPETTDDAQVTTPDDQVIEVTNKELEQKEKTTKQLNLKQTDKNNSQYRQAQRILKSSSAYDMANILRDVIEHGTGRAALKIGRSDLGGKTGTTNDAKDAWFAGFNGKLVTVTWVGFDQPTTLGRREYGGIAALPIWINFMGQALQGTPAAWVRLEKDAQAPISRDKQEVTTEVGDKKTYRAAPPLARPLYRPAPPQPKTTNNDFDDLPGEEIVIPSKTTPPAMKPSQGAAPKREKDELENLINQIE
Procedure, shortened: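 Enzyme was pre-incubated with rising inhibitor concentrations, then Bocillin-FL was added and incubated 15 minutes more. Bound probe was separated by gel filtration and fluorescence read. EC50 came from fitting fraction of PBP labelled versus inhibitor concentration to a Hill equation with ymin, ymax and n.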

[5] = test system: A. baumannii 1258916; assay: microbe, parasite or virus in culture; format: cell-based, Acinetobacter baumannii; conditions: Acinetobacter baumannii, 1258916, read-out: MIC, A. baumannii 1258916
[6] = test system: A. baumannii CDC-0036; assay: microbe, parasite or virus in culture; format: cell-based; conditions: Acinetobacter baumannii, CDC0036, read-out: MIC, A. baumannii CDC-0036
[7] = test system: P. aeruginosa (ΔmexAB-oprM); assay: Broth microdilution MIC in iron-depleted CAMHB (IDM); format: cell-based; conditions: Pseudomonas aeruginosa; iron-depleted CAMHB (IDM); […]; read-out: Minimum inhibitory concentration, P. aeruginosa ΔmexAB-oprM

O=C(NCCCN1CCN(C(=O)NC(C(=O)N[C@H]2Cc3ccc(F)c(C(=O)O)c3OB2O)c2cc(F)c(O)c(O)c2Cl)C(=O)C1=O)c1ccc(F)c(O)c1Cl (stereo partly drawn) [Example 412, (3R)-3-(2-(4-(3-(2-chloro-4-fluoro-3-hydroxybenzamido)propyl)-2,3-dioxopiperazine-1-carboxamido)-2-(2-chloro-5-fluoro-3,4-dihydroxyphenyl)acetamido)-7-fluoro-2-hydroxy-3,4-dihydro-2H-benzo[e][1,2]oxaborinine-8-carboxylic acid]
MIC [1]: < 1 mg/L
MIC [2]: < 1 mg/L
MIC [3]: 2 to 4 mg/L (≈ 2.46 to 4.92 µM)
EC50 [4]: < 10 µM
MIC [5]: 2 to 4 mg/L (≈ 2.46 to 4.92 µM)
MIC [6]: 8 to 16 mg/L (≈ 9.85 to 19.7 µM)

Cc1cnccc1C(=O)NCCCN1CCN(C(=O)NC(C(=O)N[C@H]2Cc3ccc(F)c(C(=O)O)c3OB2O)c2cc(F)c(O)c(O)c2Cl)C(=O)C1=O (stereo partly drawn) [Example 297, (3R)-3-(2-(2-chloro-5-fluoro-3,4-dihydroxyphenyl)-2-(4-(3-(3-methylisonicotinamido)propyl)-2,3-dioxopiperazine-1-carboxamido)acetamido)-7-fluoro-2-hydroxy-3,4-dihydro-2H-benzo[e][1,2]oxaborinine-8-carboxylic acid]
MIC [1]: 2 to 4 mg/L (≈ 2.64 to 5.27 µM)
MIC [2]: < 1 mg/L
MIC [3]: 2 to 4 mg/L (≈ 2.64 to 5.27 µM)
EC50 [4]: 10 to 50 µM
MIC [5]: < 1 mg/L
MIC [7]: < 1 mg/L
MIC [6]: 2 to 4 mg/L (≈ 2.64 to 5.27 µM)

O=C(NCCCN1CCN(C(=O)NC(C(=O)N[C@H]2Cc3ccc(F)c(C(=O)O)c3OB2O)c2cc(F)c(O)c(O)c2Cl)C(=O)C1=O)c1ccncc1F (stereo partly drawn) [Example 400, (3R)-3-(2-(2-chloro-5-fluoro-3,4-dihydroxyphenyl)-2-(4-(3-(3-fluoroisonicotinamido)propyl)-2,3-dioxopiperazine-1-carboxamido)acetamido)-7-fluoro-2-hydroxy-3,4-dihydro-2H-benzo[e][1,2]oxaborinine-8-carboxylic acid]
MIC [1]: < 1 mg/L
MIC [2]: < 1 mg/L
MIC [3]: 2 to 4 mg/L (≈ 2.62 to 5.24 µM)
EC50 [4]: 10 to 50 µM
MIC [5]: 2 to 4 mg/L (≈ 2.62 to 5.24 µM)
MIC [7]: < 1 mg/L
MIC [6]: 2 to 4 mg/L (≈ 2.62 to 5.24 µM)

O=C(NCCCN1CCN(C(=O)NC(C(=O)N[C@H]2Cc3ccc(F)c(C(=O)O)c3OB2O)c2cc(F)c(O)c(O)c2Cl)C1=O)c1ccc(O)cc1 (stereo partly drawn) [Example 280, (3R)-3-(2-(2-chloro-5-fluoro-3,4-dihydroxyphenyl)-2-(3-(3-(4-hydroxybenzamido)propyl)-2-oxoimidazolidine-1-carboxamido)acetamido)-7-fluoro-2-hydroxy-3,4-dihydro-2H-benzo[e][1,2]oxaborinine-8-carboxylic acid]
MIC [1]: 2 to 4 mg/L (≈ 2.73 to 5.47 µM)
MIC [2]: < 1 mg/L
MIC [3]: 2 to 4 mg/L (≈ 2.73 to 5.47 µM)
EC50 [4]: 10 to 50 µM
MIC [5]: < 1 mg/L
MIC [7]: < 1 mg/L
MIC [6]: 2 to 4 mg/L (≈ 2.73 to 5.47 µM)

O=C(NCCCN1CCN(C(=O)NC(C(=O)N[C@H]2Cc3ccc(F)c(C(=O)O)c3OB2O)c2cc(F)c(O)c(O)c2Cl)C(=O)C1=O)c1ccc(O)c(F)c1 (stereo partly drawn) [Example 304, (3R)-3-(2-(2-chloro-5-fluoro-3,4-dihydroxyphenyl)-2-(4-(3-(3-fluoro-4-hydroxybenzamido)propyl)-2,3-dioxopiperazine-1-carboxamido)acetamido)-7-fluoro-2-hydroxy-3,4-dihydro-2H-benzo[e][1,2]oxaborinine-8-carboxylic acid]
MIC [1]: 2 to 4 mg/L (≈ 2.57 to 5.14 µM)
MIC [2]: < 1 mg/L
MIC [3]: 2 to 4 mg/L (≈ 2.57 to 5.14 µM)
EC50 [4]: < 10 µM
MIC [5]: < 1 mg/L
MIC [7]: < 1 mg/L
MIC [6]: 2 to 4 mg/L (≈ 2.57 to 5.14 µM)

O=C(NCCCN1CCN(C(=O)N[C@@H](C(=O)N[C@H]2Cc3ccc(F)c(C(=O)O)c3OB2O)c2cc(F)c(O)c(O)c2Cl)C(=O)C1=O)c1c(F)cc(O)cc1F (racemic) [Example 420]
MIC [1]: 2 to 4 mg/L (≈ 2.51 to 5.03 µM)
MIC [2]: < 1 mg/L
MIC [3]: 2 to 4 mg/L (≈ 2.51 to 5.03 µM)
EC50 [4]: 10 to 50 µM
MIC [5]: 2 to 4 mg/L (≈ 2.51 to 5.03 µM)
MIC [7]: < 1 mg/L
MIC [6]: 2 to 4 mg/L (≈ 2.51 to 5.03 µM)

O=C(NCCCN1CCN(C(=O)NC(C(=O)N[C@H]2Cc3ccc(F)c(C(=O)O)c3OB2O)c2cc(F)c(O)c(O)c2Cl)C(=O)C1=O)c1c(F)cncc1F (stereo partly drawn) [Example 402, (3R)-3-(2-(2-chloro-5-fluoro-3,4-dihydroxyphenyl)-2-(4-(3-(3,5-difluoroisonicotinamido)propyl)-2,3-dioxopiperazine-1-carboxamido)acetamido)-7-fluoro-2-hydroxy-3,4-dihydro-2H-benzo[e][1,2]oxaborinine-8-carboxylic acid]
MIC [1]: < 1 mg/L
MIC [2]: < 1 mg/L
MIC [3]: 2 to 4 mg/L (≈ 2.56 to 5.12 µM)
EC50 [4]: < 10 µM
MIC [5]: 2 to 4 mg/L (≈ 2.56 to 5.12 µM)
MIC [7]: < 1 mg/L
MIC [6]: 2 to 4 mg/L (≈ 2.56 to 5.12 µM)

O=C(O)c1c(F)ccc2c1OB(O)[C@@H](NC(=O)C(NC(=O)N1CCN(C3CCN(S(=O)(=O)c4ccc(O)cc4)CC3)C(=O)C1=O)c1cc(F)c(O)c(O)c1Cl)C2 (stereo partly drawn) [Example 429, (3R)-3-(2-(2-chloro-5-fluoro-3,4-dihydroxyphenyl)-2-(4-(1-((4-hydroxyphenyl)sulfonyl)piperidin-4-yl)-2,3-dioxopiperazine-1-carboxamido)acetamido)-7-fluoro-2-hydroxy-3,4-dihydro-2H-benzo[e][1,2]oxaborinine-8-carboxylic acid]
MIC [1]: < 1 mg/L
MIC [2]: < 1 mg/L
MIC [3]: 8 to 16 mg/L (≈ 9.73 to 19.5 µM)
EC50 [4]: < 10 µM
MIC [5]: < 1 mg/L
MIC [7]: < 1 mg/L
MIC [6]: 2 to 4 mg/L (≈ 2.43 to 4.87 µM)

O=C(O)c1c(F)ccc2c1OB(O)[C@@H](NC(=O)C(NC(=O)N1CCN(C3CCN(C(=O)Nc4cccc(O)c4F)CC3)C(=O)C1=O)c1cc(F)c(O)c(O)c1Cl)C2 (stereo partly drawn) [Example 478, (3R)-3-(2-(2-chloro-5-fluoro-3,4-dihydroxyphenyl)-2-(4-(1-((2-fluoro-3-hydroxyphenyl)carbamoyl)piperidin-4-yl)-2,3-dioxopiperazine-1-carboxamido)acetamido)-7-fluoro-2-hydroxy-3,4-dihydro-2H-benzo[e][1,2]oxaborinine-8-carboxylic acid]
MIC [1]: 2 to 4 mg/L (≈ 2.44 to 4.88 µM)
MIC [2]: < 1 mg/L
MIC [3]: 2 to 4 mg/L (≈ 2.44 to 4.88 µM)
EC50 [4]: 10 to 50 µM
MIC [5]: < 1 mg/L
MIC [7]: < 1 mg/L
MIC [6]: 2 to 4 mg/L (≈ 2.44 to 4.88 µM)

O=C(NCCCN1CCN(C(=O)N[C@@H](C(=O)N[C@H]2Cc3ccc(F)c(C(=O)O)c3OB2O)c2cc(F)c(O)c(O)c2Cl)C(=O)C1=O)c1ccncc1 [Example 294, (R)-3-((R)-2-(2-chloro-5-fluoro-3,4-dihydroxyphenyl)-2-(4-(3-(isonicotinamido)propyl)-2,3-dioxopiperazine-1-carboxamido)acetamido)-7-fluoro-2-hydroxy-3,4-dihydro-2H-benzo[e][1,2]oxaborinine-8-carboxylic acid]
MIC [1]: < 1 mg/L
MIC [2]: < 1 mg/L
MIC [3]: < 1 mg/L
MIC [5]: < 1 mg/L
MIC [7]: < 1 mg/L
MIC [6]: < 1 mg/L

O=C(NCCS(=O)(=O)N1CCN(C(=O)NC(C(=O)N[C@H]2Cc3ccc(F)c(C(=O)O)c3OB2O)c2cc(F)c(O)c(O)c2Cl)C1=O)c1ccncc1 (stereo partly drawn) [Example 288, (3R)-3-(2-(2-chloro-5-fluoro-3,4-dihydroxyphenyl)-2-(3-((2-(isonicotinamido)ethyl)sulfonyl)-2-oxoimidazolidine-1-carboxamido)acetamido)-7-fluoro-2-hydroxy-3,4-dihydro-2H-benzo[e][1,2]oxaborinine-8-carboxylic acid]
MIC [1]: 2 to 4 mg/L (≈ 2.61 to 5.22 µM)
MIC [2]: < 1 mg/L
MIC [3]: 2 to 4 mg/L (≈ 2.61 to 5.22 µM)
MIC [5]: < 1 mg/L
MIC [7]: < 1 mg/L
MIC [6]: 2 to 4 mg/L (≈ 2.61 to 5.22 µM)
